Reference: publication PMC8746705, “Comparison of Experimental Strategies to Study L-Type Amino Acid Transporter 1 (LAT1) Utilization by Ligands” (Molecules, 2021)

Tests used:
[1] = Stability / bioconversion of prodrugs to parent drugs (biological media, 0.1 M NaOH cell lysing); assay type: in vitro ADME; conditions: cell lysate samples for LC-MS/MS (Table S1 footnote)
From the text: LAT1-utilizing prodrugs 1–15 (Figure 1) were selected for this study based on their ability to utilize LAT1 expressed in cells used in our previous studies. Therefore, the syntheses of these compounds are not described herein as they have been reported earlier. These compounds include prodrugs of an investigational immunosuppressive agent, perforin inhibitor (1), non-steroidal anti-inflammatory drugs (NSAIDs), ketoprofen (2–4, 14), salicylic acid (8), flurbiprofen (9 and 12), ibuprofen (10 and 13) and naproxen (11 and 15), as well as the polyphenolic antioxidant, ferulic acid (5–7). […] In addition, all NSAID prodrugs (compounds 2–4, 9–15) were prepared from their pure S-enantiomers. Prodrugs of ferulic acid (compounds 5–7) were mixtures of E- and […], which were interconvertible over time. […] Therefore, both prodrug and the released parent drug proportions were quantified and taken into account when calculating concentrations transported into the cells.
1. LC-MS/MS ionization parameters of compounds 1-15
Table S1. Ionization parameters for the LC-MS/MS methods of the studied compounds.
Precursor Product Fragmentor Collision Flow rate Gradient LLOQ
Compound ion ion(s) Voltage (V) Energy (mL/min) (A:B) (nM) […]
perforin inhibitor 1a and therefore, their transitions with a positive ion mode are reported only as KPF or as a prodrug and parent drug in parentheses. […]
drugs (ferulic acid (FA), flurbiprofen (FLB), ibuprofen (IBU), and naproxen (NPX), respectively), whose transitions with a negative ion mode are reported below the studied LAT1 -utilizing compounds i n parentheses.

[2] = molecular target: T1, LAT1 (Mus musculus, UniProt Q9Z127); experiment: Cellular uptake of L-leucine after pre-incubation of BV2 cells with the compounds; assay type: cell-based; conditions: 100 µM (L-glutamine 2 mM) pre-incubated 10 min or 3 h, L-leucine 1–400 µM, 5 min
T1 sequence (Q9Z127 whole entry): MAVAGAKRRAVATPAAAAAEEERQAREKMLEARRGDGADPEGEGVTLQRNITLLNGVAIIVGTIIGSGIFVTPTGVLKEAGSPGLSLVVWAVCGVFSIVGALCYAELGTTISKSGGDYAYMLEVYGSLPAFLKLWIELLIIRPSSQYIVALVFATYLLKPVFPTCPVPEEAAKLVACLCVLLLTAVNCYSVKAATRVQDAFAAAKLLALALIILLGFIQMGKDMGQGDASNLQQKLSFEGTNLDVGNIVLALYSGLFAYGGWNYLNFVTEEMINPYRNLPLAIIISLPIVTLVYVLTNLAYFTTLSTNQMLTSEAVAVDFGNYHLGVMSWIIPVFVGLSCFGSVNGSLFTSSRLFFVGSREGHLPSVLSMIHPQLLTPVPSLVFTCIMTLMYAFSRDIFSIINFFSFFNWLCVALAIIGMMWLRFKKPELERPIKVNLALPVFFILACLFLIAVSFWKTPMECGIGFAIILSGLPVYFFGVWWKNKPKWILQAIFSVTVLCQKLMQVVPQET
T1 sequence (P10852 whole entry partner): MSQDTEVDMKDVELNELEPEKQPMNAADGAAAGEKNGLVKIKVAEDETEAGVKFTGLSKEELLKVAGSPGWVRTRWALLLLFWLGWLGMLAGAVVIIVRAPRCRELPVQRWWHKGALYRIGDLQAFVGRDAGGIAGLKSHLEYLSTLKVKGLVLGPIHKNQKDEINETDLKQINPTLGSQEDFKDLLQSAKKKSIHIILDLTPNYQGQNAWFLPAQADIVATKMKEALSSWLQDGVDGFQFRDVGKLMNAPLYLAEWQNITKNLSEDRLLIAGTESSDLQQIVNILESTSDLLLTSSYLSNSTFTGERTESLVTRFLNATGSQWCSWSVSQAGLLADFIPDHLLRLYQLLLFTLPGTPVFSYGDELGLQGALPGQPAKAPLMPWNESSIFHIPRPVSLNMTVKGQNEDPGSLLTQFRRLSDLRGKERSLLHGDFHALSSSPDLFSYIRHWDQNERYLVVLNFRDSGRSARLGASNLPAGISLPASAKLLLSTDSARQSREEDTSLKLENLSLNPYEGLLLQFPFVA
Protocol: The ability of compounds 1–15 to affect the uptake of a known LAT1 substrate L-leucine was evaluated by pre-incubating the BV2 cells at 37 °C for 10 min or 3 h with uptake buffer pH 7.4 (250 μL) containing 100 µM of compounds 1–15 or thyroxin (T4), or known nuclear receptor inducible compounds, phenobarbital (constitutive androstane receptor, CAR), and dexamethasone (pregnane X receptor, PXR) as controls. […] After incubation, the reaction was stopped by adding 250 µL of ice-cold HBSS, and the cells were washed two times with ice-cold HBSS. The cells were then lysed with 500 μL of 0.1 M NaOH (60 min) and the lysate was mixed with 3.5 mL of Emulsifier safe cocktail (Ultima Gold, PerkinElmer, Waltham, MA, USA). The radioactivity in the cells was measured by liquid scintillation counting (MicroBeta^2 counter, PerkinElmer Waltham, MA, USA). The results were multiplied by the amount of un-labeled proportion of L-leucine in each sample.

[3] = Liver lysosomal accumulation after i.p. dose to mice; assay type: in vivo; conditions: mouse liver; parent drug of the named prodrug
Protocol: Adult male mice weighing 25 ± 5 g were supplied by Envigo (Venray, Netherlands). Mice were housed in stainless steel cages on a 12 h light (07:00–19:00) and 12 h dark (19:00–07:00) cycle at an ambient temperature of 22 ± 1 °C with a relative humidity of 50–60%. All experiments were carried out during the light phase. Tap water and food pellets (Lactamin R36; Lactamin AB, Södertälje, Sweden) were available ad libitum. A dose of 25 µmol/kg of compound 1, 2, or 8–11 was given as a bolus injection (i.p.) to mice. The mice were decapitated at selected time points between (10–360 min) and brain tissues were collected for sample preparation to be analyzed by liquid chromatography-mass spectrometric (LC-MS/MS) analysis.
The liver lysosomal samples (10–120 min; tmax) were prepared by homogenizing the pre-weigh tissues with ice-cold 0.25 M sucrose (1:3). […] Samples were vortexed and centrifuged at 10,000× g at 4 °C for 10 min and injected to LC-MS/MS to quantify the total drug amount in tissue as a control to lysosomal samples. […] The concentration of compounds in the crude lysosomal fractions were then analyzed with LC-MS/MS. Both the total liver tissue accumulation as well as the lysosomal fraction (including the possibly released parent drugs) were calculated from the standard curve that was prepared by spiking known amounts of compounds to ACN, including the selected internal standard. […]

[4] = molecular target: T1, LAT1; design: method as in earlier work; conditions: BV2 cells; probe [14C]-L-Leu; mean ± SD; published earlier; ref [31] or [33]; read-out: IC50 of [14C]-L-Leu uptake; cited from earlier work

Row | Compound | Conversion to parent drug in the analysed samples [1] | other results
1 | NC(Cc1cccc(C(=O)Oc2ccc(-c3ccc(-c4ccc5c(c4)COC5=O)s3)cc2)c1)C(=O)O (stereo not shown) [Compound 1] | partly | 
2 | C[C@H](C(=O)Nc1cccc(C[C@H](N)C(=O)O)c1)c1cccc(C(=O)c2ccccc2)c1 [Compound 2] |  | Effect on cellular uptake of L-Leu after pre-incubation [2]: induced the uptake of L-Leu; Accumulation of parent drug (dosed as such) into crude lysosomal fraction, of total liver tissue accumulation [3]: no parent drug was detected
3 | C[C@H](C(=O)Oc1cccc(C[C@H](N)C(=O)O)c1)c1cccc(C(=O)c2ccccc2)c1 [Compound 4] | fully converted into ketoprofen | 
4 | COc1cc(C=CC(=O)NCc2cccc(CC(N)C(=O)O)c2)ccc1O (stereo not shown) [Compound 5] |  | Effect on cellular uptake of L-Leu after pre-incubation [2]: induced the uptake of L-Leu
5 | COc1cc(/C=C/C(=O)Oc2cccc(C[C@H](N)C(=O)O)c2)ccc1O [Compound 7] | partly converted to their parent | 
6 | N[C@@H](Cc1cccc(NC(=O)c2ccccc2O)c1)C(=O)O [Compound 8] |  | IC50 [4]: 18.9 ± 1.6 µM
7 | C[C@H](C(=O)Oc1cccc(C[C@H](N)C(=O)O)c1)c1ccc(-c2ccccc2)c(F)c1 [Compound 12] | partly converted to their parent | IC50 [4]: 4.2 ± 1.2 µM
8 | COc1ccc2cc([C@H](C)C(=O)Oc3cccc(C[C@H](N)C(=O)O)c3)ccc2c1 [Compound 15] | partly converted to their parent | 
